Assay results: ChEMBL document CHEMBL1128125, “Inhibitors of Acyl-CoA:Cholesterol O-acyltransferase (ACAT) as hypocholesterolemic agents 14. synthesis and structure-activity relationships of a novel series of sulfonamide tetrazoles” (Bioorg Med Chem Lett, 1995)

Experiments:
[1] = Inhibition of Acyl coenzyme A:cholesterol acyltransferase (ACAT); design: species or system Oryctolagus cuniculus
[2] = system: Rattus norvegicus; test: Tested in vivo for its effect on changing plasma cholesterol level in rats at a dose of 30 mg/kg; format: functional
[3] = system: Rattus norvegicus; test: Tested in vivo for its effect on changing plasma cholesterol level in rats at a dose of 3 mg/kg; format: functional

Row | Compound | IC50 [1] | Delta TC [2] | Delta TC [3]
1 | CCCCCCCCCCCCCCCCCCn1nnc(CS(=O)(=O)Nc2c(C(C)C)cccc2C(C)C)n1 | 7600 nM | -31% | –
2 | CCCCCCCCCCCCn1nnc(C(C)(C)S(=O)(=O)Nc2c(C(C)C)cccc2C(C)C)n1 | 40 nM | -53% | –
3 | CCCCCCCCCCCCn1nnc(C(C)S(=O)(=O)Nc2c(C(C)C)cccc2C(C)C)n1 (stereo unspecified) | 32 nM | -67% | –
4 | CCCCCCCCCCCCn1nnnc1CS(=O)(=O)Nc1c(C(C)C)cccc1C(C)C | 1200 nM | -41% | –
5 | CCCCCCCCn1nnc(CS(=O)(=O)Nc2c(C(C)C)cccc2C(C)C)n1 | 750 nM | -14% | –
6 | CCCCCCCCCCCCn1nnc(C(Cc2ccccc2)S(=O)(=O)Nc2c(C(C)C)cccc2C(C)C)n1 (stereo unspecified) | 57 nM | -27% | –
7 | CCCCCCCCCCCCn1nnnc1CS(=O)(=O)Nc1c(OC)cc(OC)cc1OC | 3700 nM | -30% | –
8 | CCCCCCCCCCCCn1nnc(CC(=O)Nc2c(C(C)C)cccc2C(C)C)n1 | 2.6 nM | -64% | -62%
9 | CCCCCCCCCCCCCCn1nnc(CS(=O)(=O)Nc2c(C(C)C)cccc2C(C)C)n1 | 150 nM | -42% | –
10 | CCCCCCCCCCCCCCCCn1nnc(CS(=O)(=O)Nc2c(C(C)C)cccc2C(C)C)n1 | 600 nM | -20% | –
11 | CCCCCCCCCCCCn1nnc(CS(=O)(=O)Nc2c(OC)cc(OC)cc2OC)n1 | 180 nM | -60% | –
12 | CCCCCCCCCCCCCCCCCC(=O)Nc1c(OC)cc(OC)cc1OC | 52 nM | -11% | -31%
13 | CCCCCCCCCCCCn1nnc(CS(=O)(=O)Nc2c(C(C)C)cccc2C(C)C)n1 | 22 nM | -67% | -59%
14 | CCCCCCCCCCCCCCCCS(=O)(=O)Nc1c(OC)cc(OC)cc1OC | 690 nM | – | -31%
